Test results from US10543212B2, “Substituted amines for treating cardiac diseases” (Cardurion Pharmaceuticals, LLC, priority 2017, dated 2020).

target: T1, Full-length, GST-tagged, human CaMKIIδ (Homo sapiens, UniProt Q13557); assay: CaMKIIδ binding assay (TR-FRET with BODIPY-labeled probe ligand); details: Table 2; activity class for CaMKIIδ
T1 construct: Full-Length, Glutathione-S-Transferase(GST)-Tagged, Human CaMKIIδ was purchased from Carna Biosciences; purchased Carna Biosciences 02-111
Summary of the method: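 TR-FRET probe-displacement binding: 0.5 nM GST-CaMKIIδ with 10 μg/mL calmodulin, 1 mM CaCl2, 0.21 nM Tb-anti-GST Ab and 300 nM BODIPY probe in HEPES pH 7.6 buffer. Eight-point 4-fold dilutions, 1 hr at room temperature. IC50 from logistic fit; 100% inhibition defined by 3 μM parent compound.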

T1 sequence (Q13557 1-478 isoform Q13557-12): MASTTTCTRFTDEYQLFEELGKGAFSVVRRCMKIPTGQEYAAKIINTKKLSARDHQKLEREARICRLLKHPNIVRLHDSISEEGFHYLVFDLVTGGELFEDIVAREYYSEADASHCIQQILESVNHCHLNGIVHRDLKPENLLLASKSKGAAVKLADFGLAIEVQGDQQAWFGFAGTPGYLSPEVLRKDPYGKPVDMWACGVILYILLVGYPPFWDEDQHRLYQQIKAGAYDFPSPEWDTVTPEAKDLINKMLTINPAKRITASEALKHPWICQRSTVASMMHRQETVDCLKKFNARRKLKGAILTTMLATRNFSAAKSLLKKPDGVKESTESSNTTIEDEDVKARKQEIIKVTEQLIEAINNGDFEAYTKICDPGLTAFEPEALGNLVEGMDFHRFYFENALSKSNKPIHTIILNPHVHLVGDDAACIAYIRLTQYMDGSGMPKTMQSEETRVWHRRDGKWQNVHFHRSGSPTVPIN

`COc1nc(N2CCCN(C3CCOCC3)CC2)ccc1Nc1ncc(-c2ccc(Cl)c(O[C@@H](C)Cn3cnnn3)c2)cn1` [Example 667, (S)-5-(3-((1-(1H-tetrazol-1-yl)propan-2-yl)oxy)-4-chlorophenyl)-N-(2-methoxy-6-(4-(tetrahydro-2H-pyran-4-yl)-1,4-diazepan-1-yl)pyridin-3-yl)pyrimidin-2-amine] and `COc1nc(N2CCN(C3CC3)CC2)ccc1Nc1ncc(-c2ccc(Cl)c(O[C@@H](C)Cn3cnnn3)c2)cn1` [Example 671, (S)-5-(3-((1-(1H-tetrazol-1-yl)propan-2-yl)oxy)-4-chlorophenyl)-N-(6-(4-cyclopropylpiperazin-1-yl)-2-methoxypyridin-3-yl)pyrimidin-2-amine] cannot be ordered by IC50: under 10 nM for the first, under 10 nM for the second.

`CCn1cc(Nc2ncc(-c3ccc(Cl)c(O[C@@H](C)Cn4cnnn4)c3)cn2)c(N2CCC2)n1` [Example 668, (S)-5-(3-((1-(1H-tetrazol-1-yl)propan-2-yl)oxy)-4-chlorophenyl)-N-(3-(azetidin-1-yl)-1-ethyl-1H-pyrazol-4-yl)pyrimidin-2-amine] and `CCn1cc(Nc2ncc(-c3ccc(Cl)c(O[C@@H](C)Cn4cnnn4)c3)cn2)c(N2CCCC2)n1` [Example 669, (S)-5-(3-((1-(1H-tetrazol-1-yl)propan-2-yl)oxy)-4-chlorophenyl)-N-(1-ethyl-3-(pyrrolidin-1-yl)-1H-pyrazol-4-yl)pyrimidin-2-amine] cannot be ordered by IC50: at least 100 nM for the first, 10 to 100 nM for the second.

`C[C@@H](Cn1cnnn1)Oc1cc(-c2cnc(Nc3cn(C4CCC(O)CC4)nc3C(F)(F)F)nc2)ccc1Cl` (stereo partly drawn) [Example 670, (S)-4-(4-((5-(3-((1-(1H-tetrazol-1-yl)propan-2-yl)oxy)-4-chlorophenyl)pyrimidin-2-yl)amino)-3-(trifluoromethyl)-1H-pyrazol-1-yl)cyclohexan-1-ol] and `C[C@@H](Cn1cnnn1)Oc1cc(-c2cnc(Nc3cn(C4CCC(=O)CC4)nc3C(F)(F)F)nc2)ccc1Cl` [Example 680, (S)-4-(4-((5-(3-((1-(1H-tetrazol-1-yl)propan-2-yl)oxy)-4-chlorophenyl)pyrimidin-2-yl)amino)-3-(trifluoromethyl)-1H-pyrazol-1-yl)cyclohexan-1-one] fall in the same range of IC50: 10 to 100 nM for the first, 10 to 100 nM for the second.

`COc1cc(N2CCN3CCCC3C2)ccc1Nc1ncc(-c2ccc(Cl)c(O[C@@H](C)Cn3cnnn3)c2)cn1` (stereo partly drawn) [Example 672, 5-(3-(((S)-1-(1H-tetrazol-1-yl)propan-2-yl)oxy)-4-chlorophenyl)-N-(4-(hexahydropyrrolo[1,2-a]pyrazin-2(1H)-yl)-2-methoxyphenyl)pyrimidin-2-amine] and `COc1cc(N2CCN3CCOCC3C2)ccc1Nc1ncc(-c2ccc(Cl)c(O[C@@H](C)Cn3cnnn3)c2)cn1` (stereo partly drawn) [Example 673, 5-(3-(((S)-1-(1H-tetrazol-1-yl)propan-2-yl)oxy)-4-chlorophenyl)-N-(4-(hexahydropyrazino[2,1-c][1,4]oxazin-8(1H)-yl)-2-methoxyphenyl)pyrimidin-2-amine] cannot be ordered by IC50: under 10 nM for the first, under 10 nM for the second.

Compared with `CCn1cc(Nc2ncc(-c3ccc(Cl)c(O[C@@H](C)Cn4cnnn4)c3)cn2)c(C(F)(F)F)n1` [Example 674, (S)-5-(3-((1-(1H-tetrazol-1-yl)propan-2-yl)oxy)-4-chlorophenyl)-N-(1-ethyl-3-(trifluoromethyl)-1H-pyrazol-4-yl)pyrimidin-2-amine], `CCn1cc(Nc2ncc(-c3ccc(Cl)c(O[C@@H](C)Cn4cnnn4)c3)cn2)c(OCC(F)(F)F)n1` [Example 700, (S)-5-(3-((1-(1H-tetrazol-1-yl)propan-2-yl)oxy)-4-chlorophenyl)-N-(1-ethyl-3-(2,2,2-trifluoroethoxy)-1H-pyrazol-4-yl)pyrimidin-2-amine] is lower in IC50: 10 to 100 nM for the first, under 10 nM for the second.

`C[C@@H](Cn1cnnn1)Oc1cc(-c2cnc(Nc3cn(C4CCN(C(=O)OC(C)(C)C)CC4)nc3OCC(F)(F)F)nc2)ccc1Cl` [Example 675, tert-butyl (S)-4-(4-((5-(3-((1-(1H-tetrazol-1-yl)propan-2-yl)oxy)-4-chlorophenyl)pyrimidin-2-yl)amino)-3-(2,2,2-trifluoroethoxy)-1H-pyrazol-1-yl)piperidine-1-carboxylate] and `C[C@@H](Cn1cnnn1)Oc1cc(-c2cnc(Nc3cn(C4CN(C(=O)OC(C)(C)C)C4)nc3C(F)(F)F)nc2)ccc1Cl` [Example 696, tert-butyl (S)-3-(4-((5-(3-((1-(1H-tetrazol-1-yl)propan-2-yl)oxy)-4-chlorophenyl)pyrimidin-2-yl)amino)-3-(trifluoromethyl)-1H-pyrazol-1-yl)azetidine-1-carboxylate] fall in the same range of IC50: 10 to 100 nM for the first, 10 to 100 nM for the second.

`C[C@@H](Cn1cnnn1)Oc1cc(-c2cnc(Nc3cn(C4CCNCC4)nc3OCC(F)(F)F)nc2)ccc1Cl` [Example 676, (S)-5-(3-((1-(1H-tetrazol-1-yl)propan-2-yl)oxy)-4-chlorophenyl)-N-(1-(piperidin-4-yl)-3-(2,2,2-trifluoroethoxy)-1H-pyrazol-4-yl)pyrimidin-2-amine] and `C[C@@H](Cn1cnnn1)Oc1cc(-c2cnc(Nc3cn(C4CCCCO4)nc3OCC(F)(F)F)nc2)ccc1Cl` (stereo partly drawn) [Example 678, 5-(3-(((S)-1-(1H-tetrazol-1-yl)propan-2-yl)oxy)-4-chlorophenyl)-N-(1-(tetrahydro-2H-pyran-2-yl)-3-(2,2,2-trifluoroethoxy)-1H-pyrazol-4-yl)pyrimidin-2-amine] cannot be ordered by IC50: under 10 nM for the first, under 10 nM for the second.

`CNC(=O)C1CN(c2ccc(OC)c(Nc3ncc(-c4ccc(Cl)c(O[C@@H](C)Cn5cnnn5)c4)cn3)c2)C1` [Example 679, (S)-1-(3-((5-(3-((1-(1H-tetrazol-1-yl)propan-2-yl)oxy)-4-chlorophenyl)pyrimidin-2-yl)amino)-4-methoxyphenyl)-N-methylazetidine-3-carboxamide] and `COc1ccc(N2CCN(CC(N)=O)CC2)cc1Nc1ncc(-c2ccc(Cl)c(O[C@@H](C)Cn3cnnn3)c2)cn1` [Example 686, (S)-2-(4-(3-((5-(3-((1-(1H-tetrazol-1-yl)propan-2-yl)oxy)-4-chlorophenyl)pyrimidin-2-yl)amino)-4-methoxyphenyl)piperazin-1-yl)acetamide] cannot be ordered by IC50: under 10 nM for the first, under 10 nM for the second.

`COc1ccc(C(=O)N2CCN(CC3CC3)CC2)cc1Nc1ncc(-c2ccc(Cl)c(O[C@@H](C)Cn3cnnn3)c2)cn1` [Example 681, (S)-(3-((5-(3-((1-(1H-tetrazol-1-yl)propan-2-yl)oxy)-4-chlorophenyl)pyrimidin-2-yl)amino)-4-methoxyphenyl) (4-(cyclopropylmethyl)piperazin-1-yl)methanone] and `COc1cc(N2CCCN(C3CCOCC3)CC2)ccc1Nc1ncc(-c2ccc(Cl)c(O[C@@H](C)Cn3cnnn3)c2)cn1` [Example 693, (S)-5-(3-((1-(1H-tetrazol-1-yl)propan-2-yl)oxy)-4-chlorophenyl)-N-(2-methoxy-4-(4-(tetrahydro-2H-pyran-4-yl)-1,4-diazepan-1-yl)phenyl)pyrimidin-2-amine] cannot be ordered by IC50: under 10 nM for the first, under 10 nM for the second.

`C[C@@H](Cn1cnnn1)Oc1cc(-c2cnc(Nc3cc(C4CCN(C5COC5)CC4)c(F)cc3F)nc2)ccc1Cl` [Example 684, (S)-5-(3-((1-(1H-tetrazol-1-yl)propan-2-yl)oxy)-4-chlorophenyl)-N-(2,4-difluoro-5-(1-(oxetan-3-yl)piperidin-4-yl)phenyl)pyrimidin-2-amine] and `C[C@@H](Cn1cnnn1)Oc1cc(-c2cnc(Nc3cn(C4CN(C5COC5)C4)nc3C(F)(F)F)nc2)ccc1Cl` [Example 699, (S)-5-(3-((1-(1H-tetrazol-1-yl)propan-2-yl)oxy)-4-chlorophenyl)-N-(1-(1-(oxetan-3-yl)azetidin-3-yl)-3-(trifluoromethyl)-1H-pyrazol-4-yl)pyrimidin-2-amine] fall in the same range of IC50: 10 to 100 nM for the first, 10 to 100 nM for the second.

`COc1cc(N2CCOC(CN(C)C)C2)ccc1Nc1ncc(-c2ccc(Cl)c(O[C@@H](C)Cn3cnnn3)c2)cn1` (stereo partly drawn) [Example 688, 5-(3-(((S)-1-(1H-tetrazol-1-yl)propan-2-yl)oxy)-4-chlorophenyl)-N-(4-(2-((dimethylamino)methyl)morpholino)-2-methoxyphenyl)pyrimidin-2-amine] and `C[C@@H](Cn1cnnn1)Oc1cc(-c2cnc(Nc3cn(C4CNC4)nc3C(F)(F)F)nc2)ccc1Cl` [Example 697, (S)-5-(3-((1-(1H-tetrazol-1-yl)propan-2-yl)oxy)-4-chlorophenyl)-N-(1-(azetidin-3-yl)-3-(trifluoromethyl)-1H-pyrazol-4-yl)pyrimidin-2-amine] cannot be ordered by IC50: under 10 nM for the first, under 10 nM for the second.

`C[C@@H](Cn1cnnn1)Oc1cc(-c2cnc(Nc3cn(C4CN(C5CCOCC5)C4)nc3C(F)(F)F)nc2)ccc1Cl` [Example 698, (S)-5-(3-((1-(1H-tetrazol-1-yl)propan-2-yl)oxy)-4-chlorophenyl)-N-(1-(1-(tetrahydro-2H-pyran-4-yl)azetidin-3-yl)-3-(trifluoromethyl)-1H-pyrazol-4-yl)pyrimidin-2-amine] and `C[C@@H](Cn1cnnn1)Oc1cc(-c2cnc(Nc3cn([C@@H]4C[C@H]5CC[C@@H](C4)N5)nc3C(F)(F)F)nc2)ccc1Cl` [Example 702, 5-(3-(((S)-1-(1H-tetrazol-1-yl)propan-2-yl)oxy)-4-chlorophenyl)-N-(1-((1R,3s,5S)-8-azabicyclo[3.2.1]octan-3-yl)-3-(trifluoromethyl)-1H-pyrazol-4-yl)pyrimidin-2-amine] cannot be ordered by IC50: under 10 nM for the first, under 10 nM for the second.

`C[C@@H](Cn1cnnn1)Oc1cc(-c2cnc(Nc3cn([C@@H]4C[C@H]5CC[C@@H](C4)N5C(=O)OC(C)(C)C)nc3C(F)(F)F)nc2)ccc1Cl` [Example 701, tert-butyl (1R,3s,5S)-3-(4-((5-(3-(((S)-1-(1H-tetrazol-1-yl)propan-2-yl)oxy)-4-chlorophenyl)pyrimidin-2-yl)amino)-3-(trifluoromethyl)-1H-pyrazol-1-yl)-8-azabicyclo[3.2.1]octane-8-carboxylate] gave an IC50 of at least 100 nM.
